Measured values published in US8129413B2, “Crystalline forms of MC4R agonist and process for synthesis” (Merck Sharp & Dohme Corp., priority 2005, dated 2012).

What was measured:
Format in all cases: physicochemical
[1] = Crystal form conversion on exposure to relative humidity
Experimental: (§1) Method 2 Drying the crystalline hydrate mono HCl salt of Compound I (1-7) at a temperature over about 4° C. and relative a humidity less than about 10% yields the crystalline anhydrous mono HCl salt Form I of Compound I (1-5). The crystalline hydrate mono HCl salt of Compound I (1-7) converts to the crystalline anhydrous mono HCl salt Form I of Compound I (1-5) by means of a continuous change; as the crystalline hydrate is dried, the x-ray diffraction pattern, solid-state carbon-13 CPMAS, and solid-state fluorine-19 MAS patterns merge from the crystalline hydrate to crystalline anhydrous Form I. Incomplete conversion to the anhydrous form I will yield a unique phase, not merely a mixture of crystalline anhydrous form I and crystalline hydrate.
Method 1 A solution of compound 1-3 from Example 1 (14.6 g, 26.7 mmol) in isopropyl acetate (91 ml, at 160 g/L) was agitated in vessel 1 at 15-25° C., and 0.5 N HCl/H2O solution (54.4 mL, 27.2 mmol) was added. The mixture was aged for 5-10 minutes with agitation followed by settling without agitation. The aqueous layer was removed and transferred to vessel 2. 20 ml of deionized water were charged to vessel 1, as a rinse of the isopropyl acetate layer. After agitating the isopropyl acetate-deionized water mixture for about 5 minutes, the aqueous layer was removed and combined with the aqueous layer in vessel 2. […]

[2] = Thermodynamic stability and interconversion of crystalline forms
Experimental: as §1

[3] = Storage stability of the free base

Structure (SMILES): CC(=O)N[C@@H](C)c1cc(Cl)ccc1C1CCN(C(=O)C2CN(C(C)(C)C)C[C@H]2c2ccc(F)cc2F)CC1 (stereo partly drawn) [Compound 1-5]
- relative humidity at which anhydrous Form I converts to crystalline hydrate mono HCl salt ([1]; exposure to humidity, continuous structural change): greater than 20%

Structure (SMILES): CC(=O)N[C@@H](C)c1cc(Cl)ccc1C1CCN(C(=O)C2CN(C(C)(C)C)C[C@H]2c2ccc(F)cc2F)CC1 (stereo partly drawn) [Compound 1-6]
- physical stability of the crystal form (conversion to another form) ([2]; room temperature): converts to crystalline anhydrous mono HCl salt Form I (1-5) at room temperature

Structure (SMILES): CC(=O)N[C@@H](C)c1cc(Cl)ccc1C1CCN(C(=O)C2CN(C(C)(C)C)C[C@H]2c2ccc(F)cc2F)CC1 (stereo partly drawn) [Compound 1-7]
- relative humidity at which hydrate converts to anhydrous mono HCl salt Form I ([1]; drying at a temperature over about 4° C.): less than 10%
- thermodynamic stability among crystalline forms ([2]; ambient conditions): most thermodynamically stable crystalline form

Structure (SMILES): CC(=O)N[C@@H](C)c1cc(Cl)ccc1C1CCN(C(=O)[C@@H]2CN(C(C)(C)C)C[C@H]2c2ccc(F)cc2F)CC1 [Compound I, N-{(1S)-1-[2-(1-{[(3S,4R)-1-tert-butyl-4-(2,4-difluorophenyl)pyrrolidin-3-yl]carbonyl}piperidin-4-yl)-5-chlorophenyl]ethyl}acetamide]
- stability of the solid form ([3]; storage, light, heat): unstable, photosensitive and thermally sensitive
- storage temperature above which subject to oxidation ([3]; stored): greater than −40 °C
